Consider 17 substances from patent US20050244823A1, “Novel epitopes for celiac disease and autoimmune diseases, methods for detecting those and novel non-antigenic food compounds” (Academisch Ziekenhuis Leiden, priority 2002, published 2005).

Where no end group is shown, it is not given here. [ ]: non-standard residue; d: D form. Gln(vinylogous ester) = glutamine whose side-chain carboxamide is replaced by a vinylogous ester electrophilic trap (CO2Et)

Test [1] has as its target T1, tissue transglutaminase (tTG) (Cavia cutleri, UniProt P08587).
T1 construct: purchased Sigma, Zwijndrecht, NL T-5398
T1 sequence (P08587 2-690 limits assumed): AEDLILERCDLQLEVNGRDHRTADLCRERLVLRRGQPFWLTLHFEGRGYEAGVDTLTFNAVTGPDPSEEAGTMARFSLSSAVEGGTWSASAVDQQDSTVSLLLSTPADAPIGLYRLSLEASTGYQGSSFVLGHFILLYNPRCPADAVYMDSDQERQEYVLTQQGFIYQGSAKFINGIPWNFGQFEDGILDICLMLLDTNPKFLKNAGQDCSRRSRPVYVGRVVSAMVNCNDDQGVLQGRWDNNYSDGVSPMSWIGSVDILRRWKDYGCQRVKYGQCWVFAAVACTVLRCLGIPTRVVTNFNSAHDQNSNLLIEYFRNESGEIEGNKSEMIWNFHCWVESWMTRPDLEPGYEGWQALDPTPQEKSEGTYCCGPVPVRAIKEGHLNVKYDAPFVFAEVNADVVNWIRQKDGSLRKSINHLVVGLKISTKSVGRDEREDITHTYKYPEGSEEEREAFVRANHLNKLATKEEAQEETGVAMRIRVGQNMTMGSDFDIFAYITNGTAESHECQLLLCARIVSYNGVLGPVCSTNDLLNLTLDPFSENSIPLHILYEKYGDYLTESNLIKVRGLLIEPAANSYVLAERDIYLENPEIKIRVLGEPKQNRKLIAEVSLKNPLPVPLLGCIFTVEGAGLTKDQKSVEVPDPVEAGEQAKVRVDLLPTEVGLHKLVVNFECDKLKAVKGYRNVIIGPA
Briefly: tTG treatment of synthetic gluten peptides, deamidation determined by mass spectrometry. Conditions: for deamidation of glutamine residues by tTG: peptide 500 μg/ml, tTG 100 μg/ml, 37° C., 4 h minimum, pH 6.5. Type of test: biochemical. How it is done: (§1) Peptides and tTG treatment. Peptides were synthesised by standard Fmoc chemistry on a multiple peptide synthesizer (SyroII, MultiSynTech GmbH, Witten, Germany). Integrity of synthetic peptides was checked by rpHPLC and mass spectrometry. Tissue transglutaminase (tTG) treatment was performed by incubating the peptides (500 μg/ml) with the enzyme (100 μg/ml, Sigma, Zwijndrecht, NL; T-5398) at 37° C. for 4 h minimum, in 50 mM triethylamine-acetate pH 6.5, 2 mM CaCl2.
(§2) Mass spectrometry. Electrospray ionisation mass spectrometry was performed on the synthetic gluten peptides before and after tTG treatment, using a Q-TOF hybrid mass spectrometer (Micromass, Manchester, UK). Precursor ions were selected with the quadrupole window set to 3 Da and fragments were collected with high efficiency with the orthogonal time of flight mass spectrometer. The collision gas applied was argon (pressure 4×10^−5 mbar) and the collision voltage approximately 30 V. Deamidation of glutamine residues in synthetic gluten peptides was determined by mass spectrometric analysis as described previously (van de Wal, 1998a). Deamidation of a glutamine residue results in an increase of 1 Da. These conversions were assigned to particular glutamine residues by comparison of the fragmentation spectra of tTG treated and non-treated peptides.

Test [2] concerns gluten specific T cell lines. The experiment in a line: T cell proliferation assay with gluten specific T cell lines. Type of test: cell-based, human. Conditions: T cell line from small intestinal biopsy of celiac disease patient; antigen 1-10 μg/ml; positive = Stimulation Index>3. The procedure:
T cell clones T cell lines. Gluten specific T cell lines were generated from small intestinal biopsies of celiac disease patients as described before (van de Wal, 1998a).
T cell proliferation assays. Proliferation assays were performed in duplicate in 150 μl RPMI1640 (Gibco, Breda, NL) supplemented with 10% human serum in 96-well flat-bottomed plates (Falcon) using 10^4 T cells stimulated with 10^5 irradiated PBMCs (3000 RAD) in the presence or absence of antigen (1-10 μg/ml). After 48 hours at 37° C., cultures were pulsed with 0.5 μCi of ^3H-thymidine and harvested 18 hours thereafter as described previously (van de Wal, 1998b).

In test [3] the target is T1, tissue transglutaminase (tTG). Conditions: earlier publications (van de Wal 1998a; Arentz-Hansen 2000); cited from earlier work.
Test [4] relates to gluten specific T cell lines. Particulars: Arentz-Hansen 2000; Anderson 2000; cited from earlier work.
The target of test [5] is T1, tissue transglutaminase (tTG). The experiment in a line: Inhibition of tTG induced deamidation of a substrate gluten peptide, mass spectrometric analysis. Type of test: biochemical. The procedure:
as §1, §2

The mark [6] stands for this setting: tTG-treated synthetic gluten peptide, mass spectrometry.

Regarding “9: gluten peptide FPQHCNYQ[Q]QPQTFPQPF; [Q] = image character, presumably deamidated Q [Peptide 9]”, in test [1] (setting [6]), the “Rules QP ↓ (share of Q residues following the rule: Q preceding P not deamidated)” value is given as 100%, the “Rules QXP ↑ (share of Q residues following the rule: P at Q+2 allows deamidation)” value came to 100% and the “Rules QXXP ↓ (share of Q residues following the rule: P at Q+3 inhibits deamidation)” value is reported as 100%.
Consider LQQPQQ6PQFQPQQQF [Peptide 20], for which, in test [1] (setting [6]), the “Rules QP ↓ (share of Q residues following the rule: Q preceding P not deamidated)” value was 100%, the “Rules QXP ↑ (share of Q residues following the rule: P at Q+2 allows deamidation)” value came out at 50%, the “Rules QXXF ↑ (share of Q residues following the rule: bulky/hydrophobic residue at Q+3 allows deamidation)” value was found to be 50%^ and the “Rules QXXP ↓ (share of Q residues following the rule: P at Q+3 inhibits deamidation)” value is on record as 100%.
For PFPQLQQPQQPFPQ [gluten-derived peptide], in test [2], the “stimulation of gluten specific T cell lines (proliferation)” value (“stimulation” below) is reported as “stimulate gluten specific T cell lines”.
On the same count and under the same terms, with PFPQPQQPQQPFPQ [gluten-derived peptide] the entry was “stimulate gluten specific T cell lines”; with PFPQSQQPQQPFPQ [gluten-derived peptide], “stimulate gluten specific T cell lines”.
Regarding PFPQTQQPQQPFPQ [gluten-derived peptide], in test [2], the “stimulation” value is “stimulate gluten specific T cell lines”.
On to PFSQQQQLVL, for which, in test [1], the “deamidation of glutamine residues by tTG” value is given as “all Q-residues are deamidated”.
For the substance PFSQQQQPV, the “deamidation of glutamine residues by tTG” value in test [1] is “specifically and efficiently deamidated”.
On to PSGQ208GSFQPSQQ216N, for which, in test [1], the “deamidation of glutamine residues by tTG” value is given as “only the Q208 is deamidated”.
For the substance PSGQ208GSFQPSQQ216NPQA, the “deamidation of glutamine residues by tTG / tTG substrate” value in test [3] is “Q208 and Q216 are deamidated by tTG, whereas positions Q212, Q215, and Q219 are not”.
On to QFPQTQQPQQPFPQ [gluten-derived peptide], for which, in test [2], the “stimulation” value was “stimulate gluten specific T cell lines”.
Turning to QLPFPQQPQQPFPQ [gluten-derived peptide], the “stimulation” value in test [2] was “stimulate gluten specific T cell lines”.
Regarding QLQPFPQPQLPY, the “T cell stimulatory activity in celiac disease patients” value in test [4] is recorded as “immunodominant”.
As to QPQLPYPQ, in test [3], the “deamidation of glutamine residues by tTG / tTG substrate” value was “known to be a tTG substrate”.
For the substance QQPFPQQPQQPFPQ [gluten-derived peptide], the “stimulation” value in test [2] is “stimulate gluten specific T cell lines”.
As for QQPYPQQPQQPFPQ [gluten-derived peptide], the “stimulation” value in test [2] is given as “stimulate gluten specific T cell lines”.
With “first-generation inhibitor: biotinylated QPQLPYQ in which the carboxamide of glutamine at position 3 is replaced by a vinylogous ester electrophilic trap (CO2Et, FIG. 3) (QP[Gln(vinylogous ester)]LPYQ; also: biotinylated)”, the enzyme activity entry in test [5] (0.3 molar ratio of enzyme to inhibitor) is “completely abolished”. Also, in test [5] (inhibitor mixed with the enzyme in an equimolar ratio), the “inhibition of deamidation of a substrate peptide” value was “over 50%”.
